From ChEMBL document CHEMBL1143115, “Synthesis and biological properties of beta-turned Abeta(31-35) constrained analogues” (Bioorg Med Chem Lett, 2008)
Where a SMILES comes first, the peptide text is derived from it. [ ]: non-standard residue; d: D form. αMeP = C[C@@]1(C(=O)O)CCCN1; Aze = O=C(O)[C@@H]1CCN1; Aib = CC(C)(N)C(=O)O

Assays:
[1] = Neurotoxicity in Wistar rat neuronal cells assessed as induction of mortality at 100 uM; assay type: toxicity, cell-based
[2] = Neurotoxicity in Wistar rat neuronal cells assessed as induction of mortality at 10 uM; assay type: toxicity, cell-based
[3] = Binding affinity to immobilized amyloid beta 25-35 by Surface plasmon resonance
[4] = Protective effect against beta amyloid oligomers induced toxicity in Wistar rat neuronal cells at 100 uM; assay type: functional

SMILES	Kd [3] [µM]	other results
CC[C@H](C)[C@H](N)C(=O)N[C@H](C(=O)NCC(=O)N[C@@H](CC(C)C)C(=O)N[C@@H](CCSC)C(N)=O)[C@@H](C)CC (H-IIGLM-NH2)		Activity [1]: 10%; Activity [2]: 10%
CC[C@H](C)[C@H](N)C(=O)N[C@H](C(=O)N1CCC[C@@]1(C)C(=O)N[C@@H](CC(C)C)C(=O)N[C@@H](CCSC)C(N)=O)[C@@H](C)CC (H-II[αMeP]LM-NH2)	1530	
CC[C@H](C)[C@H](N)C(=O)N[C@H](C(=O)NC(C)(C)C(=O)N[C@@H](CC(C)C)C(=O)N[C@@H](CCSC)C(N)=O)[C@@H](C)CC (H-II[Aib]LM-NH2)	2560	Activity [4]: 24%
Nc1c(/N=N/c2ccc(-c3ccc(/N=N/c4cc(S(=O)(=O)O)c5ccccc5c4N)cc3)cc2)cc(S(=O)(=O)O)c2ccccc12 [CONGO RED]	13	
CC[C@H](C)[C@H](N)C(=O)N[C@H](C(=O)N1CCC[C@H]1C(=O)N[C@@H](CC(C)C)C(=O)N[C@@H](CCSC)C(N)=O)[C@@H](C)CC (H-IIPLM-NH2)	4490	
CC[C@H](C)[C@H](N)C(=O)N[C@H](C(=O)NCC(=O)N[C@@H](CC(C)C)C(=O)N[C@@H](CCSC)C(=O)O)[C@@H](C)CC (H-IIGLM-OH)		Activity [2]: 21%
CC[C@H](C)[C@H](N)C(=O)N[C@H](C(=O)N1CC[C@H]1C(=O)N[C@@H](CC(C)C)C(=O)N[C@@H](CCSC)C(N)=O)[C@@H](C)CC (H-II[Aze]LM-NH2)	4600	
